Results from PubChem BioAssay AID302 (DTP/NCI, 2004).
Where “and” joins values, the source holds several entries; their conditions need not be identical. Identical values can stand only once. Inconclusive results and toxic doses are left out. The calls were made as follows: active = survival T/C of 150% or more; inactive = T/C below 125% in these data. Starred links: 1 amine or outer side, 2 acyl side, 3 side chain; linkers in the order of their positions; H or OH if unused. Positions of bridges follow the written chain, without caps; N, C: chain ends. Non-standard residues stand in square brackets, D forms with d. Residues, ends and D or L forms follow the SMILES beside them. Chains are numbered I, II in the order given. Actinocin(9to1) = Cc1c2oc3c(C)ccc(C(=O)[*:1])c3nc-2c(C(=O)[*:2])c(N)c1=O; NMeV = CN[CH](C(=O)O)C(C)C; Sar = CNCC(=O)O

Test system: BALB/c mice, Madison 109 lung carcinoma i.m., survival
Experiment: NCI In Vivo Anticancer Drug Screen. Data for tumor model Madison 109 Lung Carcinoma (intramuscular) in BALB/CM mice
Conditions: endpoint: median survival time, higher = longer survival
Method: The antitumor activity of compounds was measured in mice bearing transplantable tumors. Survival or tumor size were measured and the results are expressed as the measurement made in the treated group (T) divided by the measurement made in the vehicle treated control group (C). The tumor model used in this assay is Madison 109 Lung Carcinoma (intramuscular) in BALB/CM mice

[1] = dose: 4.0 mg/kg/injection, schedule: Q01DX009 (ip), vehicle: saline with Tween-80
[2] = dose: 32.0 mg/kg/injection, schedule: Q01DX009 (ip), vehicle: saline with Tween-80
[3] = dose: 64.0 mg/kg/injection, schedule: Q01DX009 (ip), vehicle: saline with Tween-80
[4] = dose: 5.0 mg/kg/injection, schedule: Q01DX009 (ip), vehicle: saline with Tween-80
[5] = dose: 10.0 mg/kg/injection, schedule: Q01DX009 (ip), vehicle: saline with Tween-80
[6] = dose: 100.0 mg/kg/injection, schedule: Q01DX009 (ip), vehicle: saline with Tween-80
[7] = dose: 200.0 mg/kg/injection, schedule: Q01DX009 (ip), vehicle: saline with Tween-80
[8] = dose: 8.0 mg/kg/injection, schedule: Q01DX009 (ip), vehicle: saline with Tween-80
[9] = dose: 12.5 mg/kg/injection, schedule: Q01DX009 (ip), vehicle: saline
[10] = dose: 25.0 mg/kg/injection, schedule: Q01DX009 (ip), vehicle: saline
[11] = dose: 50.0 mg/kg/injection, schedule: Q01DX009 (ip), vehicle: saline
[12] = dose: 100.0 mg/kg/injection, schedule: Q01DX009 (ip), vehicle: saline
[13] = dose: 20.0 mg/kg/injection, schedule: Q01DX009 (ip), vehicle: saline with Tween-80
[14] = dose: 40.0 mg/kg/injection, schedule: Q01DX009 (ip), vehicle: saline with Tween-80
[15] = dose: 80.0 mg/kg/injection, schedule: Q01DX009 (ip), vehicle: saline with Tween-80
[16] = dose: 3.12 mg/kg/injection, schedule: Q01DX009 (ip), vehicle: saline with Tween-80
[17] = dose: 6.25 mg/kg/injection, schedule: Q01DX009 (ip), vehicle: saline with Tween-80
[18] = dose: 12.5 mg/kg/injection, schedule: Q01DX009 (ip), vehicle: saline with Tween-80
[19] = dose: 25.0 mg/kg/injection, schedule: Q01DX009 (ip), vehicle: saline with Tween-80
[20] = dose: 50.0 mg/kg/injection, schedule: Q01DX009 (ip), vehicle: saline with Tween-80

Measured: T/C

CC(=O)c1cccc(NC2C(N)C(NC(=O)N(C)C)(C(C)O)C(C)(O)C2(O)COC(=O)c2c(C)cccc2O)c1 (stereo not drawn)
inactive: dose: 0.3 mg/kg/injection, schedule: Q01DX009 (ip), vehicle: saline 98 % of control | dose: 0.6 mg/kg/injection, schedule: Q01DX009 (ip), vehicle: saline 100 % of control | dose: 1.2 mg/kg/injection, schedule: Q01DX009 (ip), vehicle: saline 103 % of control

CC(C)NCC(O)COc1cccc2ccccc12 (stereo not drawn)
inactive: [1] 111 % of control | [2] 124 % of control | [3] 120 % of control

O=[N+]([O-])c1ccc([N+](=O)[O-])c(Cl)c1
inactive: dose: 2.5 mg/kg/injection, schedule: Q01DX009 (ip), vehicle: saline with Tween-80 101 % of control | [4] 97 % of control | [5] 99 % of control

O=C(N[C@H](CO)[C@H](O)c1ccc([N+](=O)[O-])cc1)C(Cl)Cl
inactive: [6] 118 % of control | [7] 107 % of control | dose: 400.0 mg/kg/injection, schedule: Q01DX009 (ip), vehicle: saline with Tween-80 118 % of control

N=C(N)c1ccc(/C=C/c2ccc(C(=N)N)cc2)cc1
inactive: [1] 106 % of control | [8] 109 % of control | [2] 119 % of control | [3] 116 % of control

O=C1C=CC(=O)O1 (tested in a mixture with another compound)
inactive: [9] 113 % of control | [10] 110 % of control | [11] 104 % of control | [12] 110 % of control

O=[N+]([O-])c1ccc(Cl)c([N+](=O)[O-])c1
inactive: [4] 102 % of control | dose: 6.25 mg/kg/injection, schedule: Q02DX009 (ip), vehicle: water 117 % of control | [5] 100 % of control | dose: 12.5 mg/kg/injection, schedule: Q02DX009 (ip), vehicle: water 113 % of control | [13] 93 % of control | dose: 25.0 mg/kg/injection, schedule: Q02DX009 (ip), vehicle: water 113 % of control | [14] 105 % of control | dose: 50.0 mg/kg/injection, schedule: Q02DX009 (ip), vehicle: water 107 % of control | [15] 111 % of control | dose: 100.0 mg/kg/injection, schedule: Q02DX009 (ip), vehicle: water 107 % of control

CN(CO)c1nc(N(C)CO)nc(N(C)CO)n1
inactive: dose: 1.56 mg/kg/injection, schedule: Q01DX009 (ip), vehicle: saline with Tween-80 94 % of control and 101 % of control | [16] 100 % of control and 112 % of control | [17] 100 % of control and 120 % of control | [18] 107 % of control and 114 % of control | [19] 104 % of control and 108 % of control | [20] 120 % of control

NC(C/[N+]([O-])=N/O)C(=O)O (stereo not drawn)
inactive: dose: 2.0 mg/kg/injection, schedule: Q01DX009 (ip), vehicle: saline 96 % of control | dose: 4.0 mg/kg/injection, schedule: Q01DX009 (ip), vehicle: saline 116 % of control | dose: 8.0 mg/kg/injection, schedule: Q01DX009 (ip), vehicle: saline 93 % of control | dose: 16.0 mg/kg/injection, schedule: Q01DX009 (ip), vehicle: saline 118 % of control | dose: 32.0 mg/kg/injection, schedule: Q01DX009 (ip), vehicle: saline 99 % of control

COc1ccc(C[C@H](N)C(=O)NC2C(CO)OC(n3cnc4c(N(C)C)ncnc43)C2O)cc1 (stereo partly drawn)
inactive: [8] 101 % of control | dose: 16.0 mg/kg/injection, schedule: Q01DX009 (ip), vehicle: saline with Tween-80 104 % of control | [2] 104 % of control | [3] 121 % of control

CN(C)/N=N/c1nc[nH]c1C(N)=O
inactive: [19] 124 % of control | [20] 119 % of control | [6] 108 % of control

Cc1c2oc3c(C)ccc(C(=O)NC4C(=O)NC(C(C)C)C(=O)N5CCCC5C(=O)N(C)CC(=O)N(C)C(C(C)C)C(=O)OC4C)c3nc-2c(C(=O)NC2C(=O)NC(C(C)C)C(=O)N3CCCC3C(=O)N(C)CC(=O)N(C)C(C(C)C)C(=O)OC2C)c(N)c1=O (stereo not drawn) (I: TVP[Sar][NMeV] / II: TVP[Sar][NMeV]; ester I:1-I:C, II:1-II:C; linker I:N-II:N via Actinocin(9to1); configuration not given here)
inactive: dose: 0.03 mg/kg/injection, schedule: Q01DX009 (ip), vehicle: saline 101 % of control | dose: 0.06 mg/kg/injection, schedule: Q01DX009 (ip), vehicle: saline 107 % of control | dose: 0.12 mg/kg/injection, schedule: Q01DX009 (ip), vehicle: saline 101 % of control | dose: 0.25 mg/kg/injection, schedule: Q01DX009 (ip), vehicle: saline 119 % of control

CN(C)C=O
inactive: [9] 102 % of control | [10] 101 % of control and 105 % of control | [11] 101 % of control and 115 % of control | [12] 92 % of control and 101 % of control and 120 % of control | dose: 200.0 mg/kg/injection, schedule: Q01DX009 (ip), vehicle: saline 96 % of control and 106 % of control | dose: 800.0 mg/kg/injection, schedule: Q01DX009 (ip), vehicle: saline 116 % of control and 120 % of control | dose: 1600.0 mg/kg/injection, schedule: Q01DX009 (ip), vehicle: saline 107 % of control

O=[N+]([O-])c1cccc([N+](=O)[O-])c1Cl
inactive: [4] 101 % of control and 120 % of control | [5] 87 % of control and 99 % of control | [13] 120 % of control [middle of 4 runs] | [14] 114 % of control and 96 % of control and 120 % of control | [15] 90 % of control and 93 % of control and 121 % of control | dose: 160.0 mg/kg/injection, schedule: Q01DX009 (ip), vehicle: saline with Tween-80 104 % of control and 99 % of control and 119 % of control | dose: 320.0 mg/kg/injection, schedule: Q01DX009 (ip), vehicle: saline with Tween-80 87 % of control

O=C1C2(Cl)C3(Cl)C4(Cl)C(Cl)(Cl)C5(Cl)[C@]3(Cl)C1(Cl)[C@]5(Cl)C24Cl (stereo partly drawn)
inactive: [16] 112 % of control | [17] 118 % of control | [18] 121 % of control

COC1=C(N)C(=O)c2nc(-c3nc(C(=O)O)c(C)c(-c4ccc(OC)c(OC)c4O)c3N)ccc2C1=O
inactive: dose: 0.01 mg/kg/injection, schedule: Q01DX009 (ip), vehicle: saline with Tween-80 95 % of control | dose: 0.02 mg/kg/injection, schedule: Q01DX009 (ip), vehicle: saline with Tween-80 95 % of control | dose: 0.04 mg/kg/injection, schedule: Q01DX009 (ip), vehicle: saline with Tween-80 92 % of control | dose: 0.16 mg/kg/injection, schedule: Q01DX009 (ip), vehicle: saline with Tween-80 93 % of control

COc1cccc2c1C(=O)c1c(O)c3c(c(O)c1C2=O)CC(O)(C(=O)CO)CC3OC1CC(N)C(O)C(C)O1 (stereo not drawn)
inactive: [5] 100 % of control | [13] 108 % of control

Nc1ccnc(=O)[nH]1
inactive: [2] 111 % of control and 115 % of control | [3] 98 % of control and 105 % of control | dose: 128.0 mg/kg/injection, schedule: Q01DX009 (ip), vehicle: saline with Tween-80 104 % of control and 105 % of control | dose: 256.0 mg/kg/injection, schedule: Q01DX009 (ip), vehicle: saline with Tween-80 93 % of control and 105 % of control | dose: 512.0 mg/kg/injection, schedule: Q01DX009 (ip), vehicle: saline with Tween-80 115 % of control and 117 % of control

ClC(Cl)=C(Cl)Cl
inactive: [20] 119 % of control | [6] 113 % of control | [7] 107 % of control
